Experimental findings from patent US20170014375A1, “PHARMACEUTICAL COMPOSITION COMPRISING EFFECTIVE DOSE OF POMIFERIN FOR TREATING CANCERS” (Macau University of Science and Technology, priority 2015, published 2017) are described below.

Holding throughout (format): cell-based
Assay [1] relates to Bax-Bak double knock out (DKO) mouse embryonic fibroblasts. In words: MTT cytotoxicity assay, Bax-Bak DKO MEFs. Conditions: Fibroblast, 72 h, 3 days, read-out: Means of IC50. Here is the method:
(§1) The test compound of pomiferin is dissolved in DMSO at a final concentration of 100 mmol/L and stored at −20° C. Cytotoxicity is assessed using the 3-(4,5-dimethylthiazol-2-yl)-2,5-diphenyltetrazolium bromide assay as previously described^29. 2500 of caspase wild-type (caspase WT), caspase-3 deficient (caspase 3KO), caspase-7 deficient (caspase 7KO), caspase-3/-7 deficient (caspase 3/7 DKO), caspase-8 deficient (caspase 8KO), Bax-Bak wild-type (Bak-Bak WT) and Bax-Bak double knock out (Bak-Bak DKO) mouse embryonic fibroblasts (MEFs) are seeded on 96-well plates per well. After overnight pre-incubation, the cells are exposed to different concentrations of pomiferin (namely 100, 50, 25, 12.5, 6.25, 3.125, 1.5625, 0.78, 0.39, 0.195, 0.079, 0.039 μmol/L) for 3 days. Subsequently, 10 μL of MTT reagents is added to each well and incubated at 37° C. for 4 hours, followed by the addition of 100 μL solubilization buffer (10% SDS in 0.01 mol/L HCl) and overnight incubation. Absorbance at 585 nm is determined from each well on the following day. The percentage of cell viability is calculated using the following formula: Cell viability (%)=Cells numbertreated/Cells numberDMSO control×100. Data is obtained from three independent experiments.
A general note: Tetrazolium dyes change colour on reduction, which living cells bring about.

For assay [2], the system named is Atg7 wild-type (Atg7+/+) mouse embryonic fibroblasts. In words: Endogenous autophagic LC3 puncta, Atg7 wild-type MEFs. The note with it: 2 μM, FIG. 6A. How it is done: Endogenous LC3 puncta formation is quantified as previously described^2. In brief, both Atg7 wild-type and deficient mouse embryonic fibroblasts (MEFs) grown on coverslips in a 6-well plate are treated with indicated concentrations of pomiferin. Both Atg7 wild-type and deficient mouse embryonic fibroblasts are then fixed in 4% paraformaldehyde for 20 minutes at room temperature and then rinsed with PBS. After washing with PBS, the cells are then incubated with anti-LC3 (1:200) in TBST (100 mM Tris HCl, pH 7.5, 150 mM NaCl, 0.05% Tween 20 and 5% BSA) overnight at 4. After washing with PBS, the cells are incubated with anti-mouse secondary antibody (TRITC) 1:200 in TBST containing 5% BSA at 37 for 1 hrs in the dark. The coverslips are then mounted with FluorSave™ mounting media (Calbiochem, San Diego, Calif., USA) for fluorescence imaging and localization of LC3 autophagosomes are captured under the API Delta Vision Live-cell Imaging System (Applied Precision Inc., GE Healthcare Company, Washington, USA). To quantify for autophagy, the percentage of cells with punctate TRITC-LC3 fluorescence is calculated by counting the number of the cells with punctate TRITC-LC3 fluorescence in TRITC-positive cells. A minimum of 150 cells from 3 randomly selected fields is scored.

The test system of assay [3] is HeLa (human cervical cancer) cells. The assay is described as follows: MTT cytotoxicity assay, HeLa. Conditions: 72 h, 3 days, read-out: Means of IC50. How it is done:
(§2) Pomiferin is dissolved in DMSO at a final concentration of 100 mmol/L and stored at −20° C. Cytotoxicity is assessed using the 3-(4,5-dimethylthiazol-2-yl)-2,5-diphenyltetrazolium bromide assay. 4000-8000 HeLa (human cervical cancer), MCF-7 (human breast cancer), HepG2 and Hep3B (human liver cancer), H1299 and A549 (human lung cancer), LNCap (human prostate cancer) and LLC-1 (mouse Lewis lung carcinoma) cells are seeded on 96-well plates per well. After overnight pre-incubation, the cells are exposed to different concentrations of pomiferin ([…]) for 3 days. Subsequently, 10 μL of MTT reagents is added to each well and incubated at 37° C. for 4 hours followed by the addition of 100 μL solubilization buffer (10% SDS in 0.01 mol/L HCl) and overnight incubation. Absorbance at 585 nm is determined from each well the next day. The percentage of cell viability is calculated using the following formula: Cell viability (%)=Cells number treated/Cells number DMSO control×100. Data are obtained from three independent experiments.

Assay [4] concerns caspase-3/-7 deficient (caspase 3/7 DKO) mouse embryonic fibroblasts. The assay is described as follows: MTT cytotoxicity assay, caspase 3/7 DKO MEFs. The note with it: Fibroblast, 72 h, 3 days, read-out: Means of IC50. How it is done: as §1
Assay [5] concerns HCT116 p53+/− (heterozygous) isogenic colon cancer cells. The assay is described as follows: MTT cytotoxicity assay, HCT116 p53+/−. The note with it: Homo sapiens, HCT-116, 72 h, 3 days, read-out: Means of IC50. How it is done:
as §1, with “4000” for “2500”, “drug-resistant HCT-116 p53+/+, HCT-116 p53−/−” for “caspase wild-type (caspase WT), caspase-3 deficient (caspase 3KO), caspase-7 deficient (caspase 7KO), caspase-3/-7 deficient (caspase 3/7 DKO), caspase-8 deficient (caspase 8KO), Bax-Bak wild-type (Bak-Bak WT)”, “HCT-116 p53−/− isogenic colon cancer cells” for “Bax-Bak double knock out (Bak-Bak DKO) mouse embryonic fibroblasts (MEFs)”, “[…])” for “μmol/L)”

The test system of assay [6] is LNCap (human prostate cancer) cells. In words: MTT cytotoxicity assay, LNCap. Conditions: 72 h, 3 days, read-out: Means of IC50. Here is the method: as §2

For orientation: IC50 means the concentration at which inhibition is half-maximal. As to `CC(C)=CCc1c2c(c3occ(-c4ccc(O)c(O)c4)c(=O)c3c1O)C=CC(C)(C)O2` [pomiferin], the IC50 in assay [1] was 0.986 µM; in assay [3] it was 7.36 µM; in assay [4], 2.21 µM; in assay [5] it was 5.58 µM; in assay [6] it was 16.2 µM. For the same compound, in assay [2], the TRITC-LC3 puncta formation entry was “induce TRITC-LC3 puncta formation”.
